According to patent US20030134292A1, “Thermostable DNA polymerases and methods of making same” (priority 2001, published 2003):

Experiments:
Format in all cases: biochemical
[1] = target: T1, Tth Δ273 F668Y (polymerase C) (Thermus thermophilus, UniProt P52028, F274M/F669Y); experiment: DNA polymerase activity assay with detergent or additive, Tth Δ273 F668Y purified without detergent
T1 construct: made in house; host or cells: E. coli
Procedure: (§1) DNA polymerase activity was measured by running reactions of 50 μL containing 25 mM TAPS (tris-hydroxymethyl-methylaminopropane sulfonic acid) buffer, pH 9.3 (measured at 25° C.), 50 mM KCl, 2 mM MgCl2, 1 mM 2-mercaptoethanol, 0.2 mM each of dGTP, dCTP, dTTP, 0.2 mM [α-^33P]-dATP (0.05-0.1 Ci/mmol) and 0.4 mg/mL activated salmon sperm DNA. The reaction mixture (45 μL) was pre-heated to 74° C. and diluted polymerase (5 μL) added with thorough mixing. After 10 minutes of further incubation at 74° C., the reaction was stopped by the addition of 10 μL of 60 mM EDTA and the entire mixture placed at 0° C. Acid-precipitable radioactivity was determined on an aliquot ([…]) by diluting with 1 ml of 2 mM EDTA containing 0.05 mg/ml salmon sperm DNA and adding 1 mL of 20% (w/v) trichloroacetic acid, 2% (w/v) sodium pyrophosphate (Na4P2O7 10H2O) and incubating on ice for at least 15 minutes. Precipitated DNA was collected by filtering through 2.4 cm GFC filter disks (Schleichter and Schuell) and washed 7 times with 5ml of with 1 N HCl, 0.1 M sodium pyrophosphate. The filter was placed in 3 ml of aqueous scintillation counting fluid and ^33P-specific radioactivity determined by scintillation counting.
(§2) For the assays presented in Tables 5 and 6, the polymerase was diluted 10-5000 fold in a buffer containing 25 mM Tris-HCl pH 8.0, 50 mM KCl, 1 mM 2-mercaptoethanol, and the indicated concentration of detergent or other additive. Where possible, only reactions which incorporated 20- 100 pmol of dAMP in 10 minutes were used for calculation of activity.

[2] = target: T2, Taq Δ271 F667Y E681W (polymerase B) (Thermus aquaticus, UniProt P19821, E681W/F272M/F667Y); experiment: DNA polymerase activity assay with detergent or additive, Taq Δ271 F667Y E681W purified without detergent
T2 construct: made in house; host or cells: E. coli
T2 sequence (P19821 272-832 F272M/F667Y/E681W): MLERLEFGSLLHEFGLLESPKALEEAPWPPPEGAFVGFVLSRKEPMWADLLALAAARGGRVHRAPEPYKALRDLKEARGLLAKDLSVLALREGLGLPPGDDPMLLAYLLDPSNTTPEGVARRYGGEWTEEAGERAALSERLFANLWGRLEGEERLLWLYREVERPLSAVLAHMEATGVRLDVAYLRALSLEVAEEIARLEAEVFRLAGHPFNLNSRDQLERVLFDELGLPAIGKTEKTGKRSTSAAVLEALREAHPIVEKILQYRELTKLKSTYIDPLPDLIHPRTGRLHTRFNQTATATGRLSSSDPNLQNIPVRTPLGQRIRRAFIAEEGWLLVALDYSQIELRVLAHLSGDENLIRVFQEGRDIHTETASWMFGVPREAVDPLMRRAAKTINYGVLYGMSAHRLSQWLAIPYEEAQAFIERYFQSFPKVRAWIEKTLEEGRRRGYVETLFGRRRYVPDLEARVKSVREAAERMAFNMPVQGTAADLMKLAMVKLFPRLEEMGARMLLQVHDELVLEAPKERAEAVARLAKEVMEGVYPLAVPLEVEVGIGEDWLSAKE
Procedure: as §1, §2

[3] = target: T3, Taq Δ271 F667Y (polymerase A) (Thermus aquaticus, UniProt P19821, F272M/F667Y); experiment: DNA polymerase activity assay with detergent or additive, Taq Δ271 F667Y purified without detergent
T3 construct: made in house; host or cells: E. coli
T3 sequence (P19821 272-832 F272M/F667Y): as the sequence (P19821 272-832 F272M/F667Y/E681W) above, with W410E counted along it
Procedure: as §1, §2

[4] = additive final concentration 0.05% (w/v)
[5] = additive final concentration 0.1% (w/v)
[6] = additive final concentration 0.2% (w/v)
[7] = additive final concentration 0.01% (w/v)
[8] = additive final concentration 0.001% (w/v) in assay reaction mixture
[9] = additive final concentration 60 μg/ml
[10] = additive final concentration 20 μg/ml
[11] = additive final concentration 100 μg/ml

T1 sequence (P52028 274-834 F274M/F669Y): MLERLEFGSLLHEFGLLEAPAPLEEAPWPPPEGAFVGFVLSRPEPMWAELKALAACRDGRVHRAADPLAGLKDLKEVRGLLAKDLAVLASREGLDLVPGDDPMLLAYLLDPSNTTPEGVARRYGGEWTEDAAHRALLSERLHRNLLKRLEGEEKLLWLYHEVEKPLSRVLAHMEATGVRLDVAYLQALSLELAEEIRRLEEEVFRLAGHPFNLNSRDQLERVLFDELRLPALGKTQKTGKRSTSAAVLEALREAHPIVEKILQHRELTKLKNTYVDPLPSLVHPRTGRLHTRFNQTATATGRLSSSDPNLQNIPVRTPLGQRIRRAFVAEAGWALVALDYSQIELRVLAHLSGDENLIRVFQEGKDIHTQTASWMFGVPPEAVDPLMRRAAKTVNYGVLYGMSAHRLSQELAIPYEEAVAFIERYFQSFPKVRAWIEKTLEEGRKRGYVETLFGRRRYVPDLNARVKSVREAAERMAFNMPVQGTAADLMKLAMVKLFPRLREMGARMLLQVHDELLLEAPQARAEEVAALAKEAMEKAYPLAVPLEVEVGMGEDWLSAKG

## gelatin
[1]; additive final concentration 50 μg/ml
  Tth Δ273 F668Y activity relative to 0.5% each NP-40 and Tween 20: − − − (Activity < 20%)

## CCCCCCCCCC[N+](C)(C)CCCS(=O)(=O)[O-] [Zwittergent 3-10]
[2]; [4]
  Taq Δ271 F667Y E681W activity relative to 0.5% each NP-40 and Tween 20: − − − (Activity < 20%)
[2]; [5]
  Taq Δ271 F667Y E681W activity relative to 0.5% each NP-40 and Tween 20: − − (Activity 20-50%)
[2]; [6]
  Taq Δ271 F667Y E681W activity relative to 0.5% each NP-40 and Tween 20: − − (Activity 20-50%)
[1]; [4]
  Tth Δ273 F668Y activity relative to 0.5% each NP-40 and Tween 20: − − (Activity 20-50%)
[1]; [5]
  Tth Δ273 F668Y activity relative to 0.5% each NP-40 and Tween 20: + (Activity 60-70%)
[1]; [6]
  Tth Δ273 F668Y activity relative to 0.5% each NP-40 and Tween 20: + (Activity 60-70%)
[3]; [4]
  Taq Δ271 F667Y activity relative to 0.5% each NP-40 and Tween 20: − − (Activity 20-50%)
[3]; [5]
  Taq Δ271 F667Y activity relative to 0.5% each NP-40 and Tween 20: − − (Activity 20-50%)
[3]; [6]
  Taq Δ271 F667Y activity relative to 0.5% each NP-40 and Tween 20: − (Activity 50-60%)

## CCCCCCCCO[C@@H]1O[C@H](CO)[C@H](O)[C@H](O)[C@H]1O [N-octyl β-D-galactopyranoside]
[2]; [7]
  Taq Δ271 F667Y E681W activity relative to 0.5% each NP-40 and Tween 20: − − − (Activity < 20%)
[2]; [5]
  Taq Δ271 F667Y E681W activity relative to 0.5% each NP-40 and Tween 20: − (Activity 50-60%)
[2]; additive final concentration 0.25% (w/v)
  Taq Δ271 F667Y E681W activity relative to 0.5% each NP-40 and Tween 20: + (Activity 60-70%)
[2]; additive final concentration 0.5% (w/v)
  Taq Δ271 F667Y E681W activity relative to 0.5% each NP-40 and Tween 20: − − − (Activity < 20%)
[1]; [8]
  Tth Δ273 F668Y activity relative to 0.5% each NP-40 and Tween 20: − − (Activity 20-50%)
[1]; [7]
  Tth Δ273 F668Y activity relative to 0.5% each NP-40 and Tween 20: − − (Activity 20-50%)
[1]; [4]
  Tth Δ273 F668Y activity relative to 0.5% each NP-40 and Tween 20: + + + (Activity > 80% (relative to activity using 0.5% each NP-40 and Tween 20))
[3]; [8]
  Taq Δ271 F667Y activity relative to 0.5% each NP-40 and Tween 20: − − − (Activity < 20%)
[3]; [7]
  Taq Δ271 F667Y activity relative to 0.5% each NP-40 and Tween 20: − − − (Activity < 20%)
[3]; [4]
  Taq Δ271 F667Y activity relative to 0.5% each NP-40 and Tween 20: − − (Activity 20-50%)

## Bovine Serum Albumin (BSA): Bovine Serum Albumin
[1]; [9]
  Tth Δ273 F668Y activity relative to 0.5% each NP-40 and Tween 20: − − (Activity 20-50%)
[3]; [9]
  Taq Δ271 F667Y activity relative to 0.5% each NP-40 and Tween 20: − (Activity 50-60%)

## CCCCCCCCCCCCCC[N+](C)(C)CCCS(=O)(=O)[O-] [Zwittergent 3-14]
[2]; [7]
  Taq Δ271 F667Y E681W activity relative to 0.5% each NP-40 and Tween 20: − − − (Activity < 20%)

## E. coli Single-Stranded DNA Binding Protein: E. coli Single-Stranded DNA Binding Protein
[1]; [10]
  Tth Δ273 F668Y activity relative to 0.5% each NP-40 and Tween 20: − − − (Activity < 20%)
[1]; [11]
  Tth Δ273 F668Y activity relative to 0.5% each NP-40 and Tween 20: − − − (Activity < 20%)

B1: T4 gene 32 Protein: T4 gene 32 Protein (protein, UniProt P03695 1-301, looked up)
Single-stranded DNA-binding …: MFKRKSTAELAAQMAKLNGNKGFSSEDKGEWKLKLDNAGNGQAVIRFLPSKNDEQAPFAILVNHGFKKNGKWYIETCSSTHGDYDSCPVCQYISKNDLYNTDNKEYSLVKRKTSYWANILVVKDPAAPENEGKVFKYRFGKKIWDKINAMIAVDVEMGETPVDVTCPWEGANFVLKVKQVSGFSNYDESKFLNQSAIPNIDDESFQKELFEQMVDLSEMTSKDKFKSFEELNTKFGQVMGTAVMGGAAATAAKKADKVADDLDAFNVDDFNTKTEDDFMSSSSGSSSSADDTDLDDLLNDL
[1]; [10]
  Tth Δ273 F668Y activity relative to 0.5% each NP-40 and Tween 20: − − − (Activity < 20%)
[1]; [11]
  Tth Δ273 F668Y activity relative to 0.5% each NP-40 and Tween 20: − − − (Activity < 20%)
